Assay [1] deals with CtermHisTag-mEGFR Triple Mutant - C797S, L858R, T790M (Homo sapiens, UniProt P00533, C797S/L858R/T790M). Description: TR-FRET probe displacement assay, EGFR triple mutant. Type of assay: binding. The following applies: T790M 1.25 nM, probe 100 nM, 30 mins room temperature. Put shortly:
(§1)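 Probe displacement from His-tagged wild-type or triple-mutant EGFR measured by TR-FRET (excitation 337 nm, emission 490/520 nm). Compounds spanned final concentrations from 3 to 100000 nM over ten points; technical replicates, repeated twice biologically.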

The target of assay [2] is T1, Phospho-EGFR (Tyr1068) in A431 cells (Homo sapiens, UniProt P00533).
T1 construct: endogenous in cells; host or cells: A431
Description: HTRF pEGFR/total EGFR assay in A431 cells (EGF stimulated). It is filed as cell-based. The following applies: compound 2.5 hours then 100 ng/ml EGF 30 mins, ratio pEGFR/total EGFR. Put shortly:
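HTRF readout (665 and 620 nm) of Tyr1068-phosphorylated versus total EGFR in lysed A431 cells, expressed as ratio relative to 0uM control (%). Compound exposure 2.5 h in duplicate at 0.1% DMSO, with 100 ng/ml EGF added for 30 min.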

In assay [3] the target is T2, Phospho-EGFR (Tyr1068) in H1975 C797S cells (Homo sapiens, UniProt P00533, C797S/L858R/T790M).
T2 construct: endogenous in cells; host or cells: H1975 C797S (CRISPR-edited in house from ATCC CRL-5908)
Briefly: HTRF pEGFR/total EGFR assay in H1975 C797S cells. It is filed as cell-based. The following applies: H1975 C797S cells (CRISPR), compound 3 hours, ratio pEGFR/total EGFR. Put shortly:
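Phospho-EGFR (Tyr1068) and total EGFR were measured by HTRF (665 and 620 nm) in lysates of NGS-validated H1975 EGFR C797S cells. Cells were dosed for 3 h in duplicate, 0.1% DMSO final. Read-out is the pEGFR/total EGFR ratio relative to the 0 uM control, as percent.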
For orientation: In TR-FRET formats the signal depends on donor and acceptor labels being close together.

Assay [4] has as its target CtermHisTag-mEGFR Wild type (Homo sapiens, UniProt P00533). Description: TR-FRET probe displacement assay, EGFR wild type. It is filed as binding. To be noted: EGFR wild type 1.25 nM, probe 100 nM, 30 mins room temperature. Put shortly:
as §1

Assay [5] deals with T3, Phospho-EGFR (Tyr1068) in H1975 cells (Homo sapiens, UniProt P00533, L858R/T790M).
T3 construct: host or cells: H1975
Description: HTRF pEGFR/total EGFR assay in H1975 cells. Type of assay: cell-based. To be noted: compound 3 hours, ratio pEGFR/total EGFR. Put shortly:
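H1975 cells (EGFR L858R/T790M) adhered 24 h, then compound-treated for 3 h in duplicate, 0.1% DMSO final. Lysates read by HTRF at 665/620 nm for phospho-Tyr1068 and total EGFR. Value is pEGFR/total EGFR ratio as % of 0 uM control.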

CtermHisTag-mEGFR Wild type, sequence (P00533 25-1210): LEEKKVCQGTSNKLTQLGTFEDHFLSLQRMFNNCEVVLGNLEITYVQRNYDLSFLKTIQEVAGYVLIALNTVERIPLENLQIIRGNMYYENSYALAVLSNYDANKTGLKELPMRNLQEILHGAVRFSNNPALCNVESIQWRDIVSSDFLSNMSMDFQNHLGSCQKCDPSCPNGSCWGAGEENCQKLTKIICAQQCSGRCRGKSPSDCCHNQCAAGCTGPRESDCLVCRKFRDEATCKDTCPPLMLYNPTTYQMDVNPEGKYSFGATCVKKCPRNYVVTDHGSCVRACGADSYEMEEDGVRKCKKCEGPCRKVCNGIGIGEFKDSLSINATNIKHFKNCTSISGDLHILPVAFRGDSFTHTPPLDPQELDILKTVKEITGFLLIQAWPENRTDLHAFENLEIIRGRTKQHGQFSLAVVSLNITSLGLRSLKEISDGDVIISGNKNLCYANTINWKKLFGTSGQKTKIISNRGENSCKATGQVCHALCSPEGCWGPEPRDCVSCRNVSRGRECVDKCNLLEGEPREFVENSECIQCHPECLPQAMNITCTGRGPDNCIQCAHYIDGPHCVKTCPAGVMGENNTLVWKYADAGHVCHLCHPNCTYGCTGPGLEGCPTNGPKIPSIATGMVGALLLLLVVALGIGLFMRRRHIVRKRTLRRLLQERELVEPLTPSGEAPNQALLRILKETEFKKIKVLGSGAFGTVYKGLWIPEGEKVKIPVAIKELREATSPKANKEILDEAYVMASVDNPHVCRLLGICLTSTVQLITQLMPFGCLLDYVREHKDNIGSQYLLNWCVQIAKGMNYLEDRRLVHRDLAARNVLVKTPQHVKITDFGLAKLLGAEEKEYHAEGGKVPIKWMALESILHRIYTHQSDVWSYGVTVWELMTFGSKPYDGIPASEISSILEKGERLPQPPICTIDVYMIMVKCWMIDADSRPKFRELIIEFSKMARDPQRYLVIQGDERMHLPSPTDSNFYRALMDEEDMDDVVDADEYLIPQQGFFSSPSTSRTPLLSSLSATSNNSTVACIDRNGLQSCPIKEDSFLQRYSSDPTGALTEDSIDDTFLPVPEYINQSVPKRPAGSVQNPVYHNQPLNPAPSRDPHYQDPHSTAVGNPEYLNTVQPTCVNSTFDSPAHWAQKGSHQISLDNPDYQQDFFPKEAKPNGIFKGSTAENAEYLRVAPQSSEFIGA
T1 sequence (P00533 25-1210): as above
T3 sequence (P00533 25-1210 T790M/L858R): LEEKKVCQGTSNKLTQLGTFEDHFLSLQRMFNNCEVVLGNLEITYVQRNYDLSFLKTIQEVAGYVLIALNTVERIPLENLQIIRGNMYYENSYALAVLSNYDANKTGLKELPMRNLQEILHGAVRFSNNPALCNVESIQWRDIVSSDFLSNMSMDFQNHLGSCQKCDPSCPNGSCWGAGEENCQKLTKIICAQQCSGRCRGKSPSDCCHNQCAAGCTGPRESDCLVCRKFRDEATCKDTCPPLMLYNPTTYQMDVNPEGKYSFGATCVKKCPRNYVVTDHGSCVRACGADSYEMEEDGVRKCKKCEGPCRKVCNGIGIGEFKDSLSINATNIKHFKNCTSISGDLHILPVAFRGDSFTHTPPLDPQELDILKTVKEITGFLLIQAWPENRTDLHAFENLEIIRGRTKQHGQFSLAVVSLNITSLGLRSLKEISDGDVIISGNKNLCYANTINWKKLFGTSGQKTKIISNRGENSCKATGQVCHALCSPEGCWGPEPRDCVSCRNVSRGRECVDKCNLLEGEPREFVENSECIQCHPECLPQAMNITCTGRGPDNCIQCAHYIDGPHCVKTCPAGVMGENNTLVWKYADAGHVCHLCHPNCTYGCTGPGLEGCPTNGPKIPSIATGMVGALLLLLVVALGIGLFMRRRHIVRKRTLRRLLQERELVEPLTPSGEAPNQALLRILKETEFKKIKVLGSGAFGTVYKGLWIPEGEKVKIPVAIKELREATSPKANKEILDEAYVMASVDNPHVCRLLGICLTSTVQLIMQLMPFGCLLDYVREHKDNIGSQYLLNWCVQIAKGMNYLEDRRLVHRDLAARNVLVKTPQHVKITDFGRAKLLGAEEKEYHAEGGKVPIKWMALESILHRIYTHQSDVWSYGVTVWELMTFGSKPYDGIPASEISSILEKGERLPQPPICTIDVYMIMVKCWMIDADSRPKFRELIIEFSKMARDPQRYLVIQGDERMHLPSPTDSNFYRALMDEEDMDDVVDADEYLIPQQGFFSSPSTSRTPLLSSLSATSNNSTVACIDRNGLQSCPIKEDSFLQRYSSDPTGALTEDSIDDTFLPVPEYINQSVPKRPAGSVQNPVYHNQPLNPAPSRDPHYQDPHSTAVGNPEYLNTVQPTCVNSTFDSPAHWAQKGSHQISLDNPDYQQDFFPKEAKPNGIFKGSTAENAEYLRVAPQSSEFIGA
CtermHisTag-mEGFR Triple Mutant - C797S, L858R, T790M, sequence (P00533 25-1210 T790M/C797S/L858R): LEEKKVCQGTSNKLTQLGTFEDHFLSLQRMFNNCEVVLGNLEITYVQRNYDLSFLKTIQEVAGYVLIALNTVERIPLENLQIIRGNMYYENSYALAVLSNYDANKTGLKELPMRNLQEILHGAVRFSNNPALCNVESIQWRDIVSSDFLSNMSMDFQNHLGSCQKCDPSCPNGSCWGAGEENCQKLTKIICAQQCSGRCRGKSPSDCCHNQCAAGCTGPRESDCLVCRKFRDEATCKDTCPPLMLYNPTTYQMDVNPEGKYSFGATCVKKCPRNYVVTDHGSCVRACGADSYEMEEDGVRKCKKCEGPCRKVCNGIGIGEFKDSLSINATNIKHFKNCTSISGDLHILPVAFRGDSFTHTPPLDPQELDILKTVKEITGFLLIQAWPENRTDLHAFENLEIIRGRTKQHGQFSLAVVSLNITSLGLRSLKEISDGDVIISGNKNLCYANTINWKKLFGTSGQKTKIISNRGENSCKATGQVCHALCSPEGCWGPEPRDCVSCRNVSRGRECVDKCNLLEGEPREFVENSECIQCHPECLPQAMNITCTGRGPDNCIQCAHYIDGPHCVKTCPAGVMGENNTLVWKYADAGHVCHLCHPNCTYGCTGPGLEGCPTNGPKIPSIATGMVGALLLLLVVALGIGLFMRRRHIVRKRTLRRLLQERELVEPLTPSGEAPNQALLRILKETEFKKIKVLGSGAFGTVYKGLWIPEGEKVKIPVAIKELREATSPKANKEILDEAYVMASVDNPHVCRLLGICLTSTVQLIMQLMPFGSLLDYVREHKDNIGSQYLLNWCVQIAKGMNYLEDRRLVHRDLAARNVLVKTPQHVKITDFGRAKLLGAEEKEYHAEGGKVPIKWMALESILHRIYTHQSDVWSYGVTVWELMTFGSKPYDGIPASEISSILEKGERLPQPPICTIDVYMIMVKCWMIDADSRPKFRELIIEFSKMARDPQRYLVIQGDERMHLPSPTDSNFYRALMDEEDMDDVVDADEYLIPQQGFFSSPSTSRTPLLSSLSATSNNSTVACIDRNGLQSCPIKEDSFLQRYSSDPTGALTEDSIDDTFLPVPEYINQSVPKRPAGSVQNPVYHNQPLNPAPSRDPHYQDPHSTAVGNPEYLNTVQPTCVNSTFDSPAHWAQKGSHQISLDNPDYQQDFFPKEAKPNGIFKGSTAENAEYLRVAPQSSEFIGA

Usually IC50 stands for the concentration that gives 50% inhibition. In the case of `C#Cc1cc(N2C(=O)N(C)CC23CCCC3)nc2nc(Nc3ccc(N4CCOCC4)cc3)ncc12` [Example 103, 1-(5-Ethynyl-2-{[4-(morpholin-4-yl)phenyl]amino}pyrido[2,3-d]pyrimidin-7-yl)-3-methyl-1,3-diazaspiro[4.4]nonan-2-one], the IC50 in assay [1] was 20 to 100 nM; in assay [2] it was 1000 to 3000 nM; in assay [3] it was under 500 nM; in assay [4] it was under 1000 nM; in assay [5], under 500 nM.

With `C#Cc1cc(NC(=O)NC2COC2)nc2nc(Nc3ccc(N4CCN(C)CC4)cc3)ncc12` [Example 43, 1-(5-ethynyl-2-{[4-(4-methylpiperazin-1-yl)phenyl]amino}pyrido[2,3-d]pyrimidin-7-yl)-3-(oxetan-3-ylI)urea], the IC50 in assay [1] was under 20 nM; in assay [2], over 3000 nM; in assay [3] it was under 500 nM; in assay [4], under 1000 nM; in assay [5] it was under 500 nM.

As for `C#Cc1cc(NC(=O)NC2CCCC2)nc2nc(Nc3ccccc3N3CCC(CS(C)(=O)=O)CC3)ncc12` [Example 90, 3-Cyclopentyl-1-[5-ethynyl-2-({2-[4-(methanesulfonylmethyl)piperidin-1-yl]phenyl}amino)pyrido[2,3-d]pyrimidin-7-yl]urea], the IC50 in assay [1] is 1000 to 50000 nM; in assay [2] it was over 3000 nM; in assay [3], over 3000 nM; in assay [4] it was over 10000 nM; in assay [5], over 3000 nM.

Take `C#Cc1cc(NC(=O)NC2CCCC2)nc2nc(Nc3ccc(S(=O)(=O)N(C)C)cc3)ncc12` [Example 82, 3-Cyclopentyl-1-(2-([4-(dimethylsulfamoyl)phenyl]amino-5-ethynyl)pyrido[2,3-d]pyrimidin-7-yl)urea]: the IC50 in assay [1] is under 20 nM; in assay [2], over 3000 nM; in assay [3], over 3000 nM; in assay [4], over 10000 nM; in assay [5] it was over 3000 nM.

For the compound `C#Cc1cc(OC(C)C)nc2nc(Nc3ccc(N4CCN(C)CC4)cc3)ncc12` [Example 17, 5-ethynyl-7-isopropoxy-N-[4-(4-methylpiperazin-1-yl)phenyl]pyrido[2,3-d]pyrimidin-2-amine], the IC50 in assay [1] was 100 to 1000 nM; in assay [2], over 3000 nM; in assay [3] it was 1000 to 3000 nM; in assay [4] it was over 10000 nM; in assay [5], 1000 to 3000 nM.

For `C#Cc1cc(N2C(=O)NCC23CCCC3)nc2nc(Nc3ccc(S(=O)(=O)N(C)C)cc3)ncc12` [Example 97, 4-[(5-Ethynyl-7-{2-oxo-1,3-diazaspiro[4.4]nonan-1-yl}pyrido[2,3-d]pyrimidin-2-yl)amino]-N,N-dimethylbenzenesulfonamide], the IC50 is 20 to 100 nM in assay [1]; over 3000 nM in assay [2]; over 3000 nM in assay [3]; over 10000 nM in assay [4]; over 3000 nM in assay [5].

Regarding `C#Cc1cc(NC(=O)NC2CCCC2)nc2nc(Nc3ccccc3N3CCC(CS(C)(=O)=O)C3)ncc12` (stereo not shown) [Example 89], the IC50 in assay [1] is 1000 to 50000 nM; in assay [2] it was over 3000 nM; in assay [3], over 3000 nM; in assay [4], over 10000 nM; in assay [5], over 3000 nM.

For `C#Cc1cc(NC(=O)NCc2ccccc2)nc2nc(Nc3ccc(N4CCN(C)CC4)cc3)ncc12` [Example 39, 1-benzyl-3-(5-ethynyl-2-{[4-(4-methylpiperazin-1-yl)phenyl]amino}pyrido[2,3-d]pyrimidin-7-yl)urea], the IC50 in assay [1] was under 20 nM; in assay [2], over 3000 nM; in assay [3] it was under 500 nM; in assay [4], under 1000 nM; in assay [5], under 500 nM.

With `C#Cc1cc(NC(=O)NC2CCOC2)nc2nc(Nc3ccc(N4CCN(C)CC4)cc3)ncc12` (stereo not shown) [Example 42, 1-(5-ethynyl-2-{[4-(4-methylpiperazin-1-yl)phenyl]amino}pyrido[2,3-d]pyrimidin-7-yl)-3-(oxolan-3-yl)urea], the IC50 is under 20 nM in assay [1]; over 3000 nM in assay [2]; under 500 nM in assay [3]; under 1000 nM in assay [4]; under 500 nM in assay [5].

As for `C#Cc1cc(N2C(=O)NCC23CCCC3)nc2nc(Nc3ccc(S(C)(=O)=O)cc3)ncc12` [Example 96, 1-{5-Ethynyl-2-[(4-methanesulfonylphenyl)amino]pyrido[2,3-d]pyrimidin-7-yl}-1,3-diazaspiro[4.4]nonan-2-one], the IC50 in assay [1] is under 20 nM; in assay [2] it was 1000 to 3000 nM; in assay [3], 1000 to 3000 nM; in assay [4] it was under 1000 nM; in assay [5], 500 to 1000 nM.

With `C#Cc1cc(NC(=O)NC2CCCC2)nc2nc(Nc3ccc(N4CCN(C)CC4)c(NCC4CCC4)c3)ncc12` [Example 63], the IC50 is 20 to 100 nM in assay [1]; under 500 nM in assay [2]; 1000 to 3000 nM in assay [3]; under 1000 nM in assay [4]; under 500 nM in assay [5].

For `C#Cc1cc(NC(=O)NC2CCCC2)nc2nc(Nc3ccc(OC4CN(C)C4)cc3)ncc12` [Example 80], the half-inhibitory concentration (IC50) is under 20 nM in assay [1]; 1000 to 3000 nM in assay [2]; under 500 nM in assay [3]; under 1000 nM in assay [4]; over 3000 nM in assay [5].

Turning to `C#Cc1cc(NC(=O)c2ccccc2)nc2nc(Nc3ccc(N4CCN(C)CC4)cc3)ncc12` [Example 29, N-(5-ethynyl-2-{[4-(4-methylpiperazin-1-yl)phenyl]amino}pyrido[2,3-d]pyrimidin-7-yl)benzamide], the IC50 is 20 to 100 nM in assay [1]; over 3000 nM in assay [2]; over 3000 nM in assay [3]; 1000 to 10000 nM in assay [4]; over 3000 nM in assay [5].

On to `C#Cc1cc(N2CCCC2=O)nc2nc(Nc3ccc(N4CCN(C)CC4)cc3)ncc12` [Example 31, 1-(5-ethynyl-2-{[4-(4-methylpiperazin-1-yl)phenyl]amino}pyrido[2,3-d]pyrimidin-7-yl)pyrrolidin-2-one], for which the IC50 is under 20 nM in assay [1]; over 3000 nM in assay [2]; 1000 to 3000 nM in assay [3]; 1000 to 10000 nM in assay [4]; 1000 to 3000 nM in assay [5].

`C#Cc1cc(N2C(=O)OCC2C(C)C)nc2nc(Nc3ccc(N4CCN(C)CC4)cc3)ncc12` (stereo not shown) [Example 68, 3-(5-ethynyl-2-{[4-(4-methylpiperazin-1-yl)phenyl]amino}pyrido[2,3-d]pyrimidin-7-yl)-4-isopropyl-1.3-oxazolidin-2-one]: the IC50 in assay [1] is under 20 nM; in assay [2], over 3000 nM; in assay [3] it was 1000 to 3000 nM; in assay [4] it was 1000 to 10000 nM; in assay [5], under 500 nM.

On to `C#Cc1cc(NC(=O)N[C@@H]2CCN(C(C)=O)C2)nc2nc(Nc3ccc(N4CCN(C)CC4)cc3)ncc12` [Example 52], for which the IC50 in assay [1] was 20 to 100 nM; in assay [2], over 3000 nM; in assay [3] it was over 3000 nM; in assay [4] it was 1000 to 10000 nM; in assay [5], over 3000 nM.

With `C#Cc1cc(NC(=O)NCC2CCOC2)nc2nc(Nc3ccc(N4CCN(C)CC4)cc3)ncc12` (stereo not shown) [Example 51, 1-(5-ethynyl-2-{[4-(4-methylpiperazin-1-yl)phenyl]amino}pyrido[2,3-d]pyrimidin-7-yl)-3-(oxolan-3-ylmethyl)urea], the half-maximal inhibitory concentration (IC50) in assay [1] was under 20 nM; in assay [2] it was over 3000 nM; in assay [3], under 500 nM; in assay [4], under 1000 nM; in assay [5], under 500 nM.

These data come from patent US20260176265A1 (Cancer Research Technology Limited, priority 2022, published 2026).
